The values that follow come from patent publication US4246263A, “Antiinflammatory and immunoregulatory pyrimidines, their method of use and pharmaceutical compositions” (priority 1979, dated 1981).

In data set [1] the test system is azathioprine-sensitive, rosette-forming cells. As to the kind of experiment: mouse E-rosette procedure (restoration of azathioprine-sensitive rosette-forming cells in adult thymectomized mice). Format: in vivo, mouse (CD-1. The procedure:
(§1) Antiinflammatory activity is reflected in the so-called rat foot edema test, in which the ability of an oral dose of the compound to inhibit an inflammatory reaction is measured, while immunoregulatory activity is assessed by the so-called mouse E-rosette procedure in which the ability of the test compound to restore erythrocyte rosette formation in thymectomized mice is measured. These tests are described in greater detail below.
As mentioned above, the immunoregulatory activity of the compounds of this invention is assessed by the mouse E-rosette procedure. In the mouse, the presence of a thymus is required for full expression of normal rosette formation with sheep erythrocytes [see for example, Bach and Dardenne, Immunol. 25, 353 (1973)]. The procedure examines the ability of a drug to restore azathioprine-sensitive, rosette-forming cells in adult thymectomized mice to the levels of normal animals. Specifically, rosette formation is examined in CD-1 mice thymectomized at 4 weeks of age and left at least 14 days post-surgery before manipulation (ATX mice). The ATX mice are dosed orally either with saline vehicle or drug. Sixteen hours later, single cell suspensions are prepared in Hanks balanced salt solution (HBSS) from the pooled spleens of three mice. To each tube is added 0.1 ml of lymphocytes (6×10^7 /ml) in HBSS and either 0.1 ml of HBSS or 0.1 ml of 40 μg/ml azathioprine in HBSS. After 90 minutes incubation at 37° C., the cells are washed 2× with 5 ml. of HBSS, made back up to 0.2 ml, and 0.2 ml of sheep red blood cells (erythrocytes) at 1.2×10^8 cells/ml. added. Then […] on hemagglutination slides and the number of rosettes counted. The ability of the test compound to restore the number of azathioprine sensitive rosetting cells to normal or higher is determined. In normal mice 42%±12% azathioprine sensitivity is found. In adult thymectomized mice 3±3% azathioprine sensitivity is found.

The test system of data set [2] is ultraviolet light induced erythema. Put plainly: ultraviolet light induced erythema procedure. Format: in vivo. As to conditions: for suppression of erythema (NSAI drugs): ultraviolet light induced erythema, dose not given.
Data set [3] has as its system rats. The note with it: oral.
In data set [4] the test system is carrageenin-induced rat foot edema. As to the kind of experiment: carrageenin-induced rat foot edema test. Format: in vivo, rat (male albino). How it is done: as §1
As mentioned above, the antiinflammatory activity of the compounds of the present invention is determined in the standard carrageenin-induced rat foot edema test [described by C. A. Winter et al., Proc. Soc. Exp. Biol. 111, p. 544 (1962)]. In this test, antiinflammatory activity is determined as the inhibition of edema formation in the hind paw of male albino rats (weight 150-190 g.) in response to a subplantar injection of carrageenin. The carrageenin is injected as a 1 percent aqueous suspension (0.05 ml.) 1 hour after oral administration of the drug. Edema formation is then assessed 3 hours after the carrageenin injection by measuring the volume of the injected paw initially as well as at the 3 hour mark. The increase in volume three hours after carrageenin injection constitutes the individual response. Compounds are considered active if the response between the drug-treated animals (six rats/group) and the control group (i.e., animals receiving the vehicle alone) is deemed to be significant on comparison with results afforded by standard compounds like acetylsalicylic acid at 100 mg./kg […] phenylbutazone at 33 mg./kg., both by the oral route of administration. The activity of the compound under test is expressed as the % inhibition of edema at a given oral dose. The ability of compounds to inhibit edema at various oral dosages (mg./kg., i.e. mg. of drug/kg. of rat body weight) is shown in Table II.

Data set [5] in a line: water solubility. Format: physicochemical. As to conditions: dihydrogen phosphate salt.
The test system of data set [6] is polyarthritis produced by injection of complete Freund's adjuvant. Put plainly: polyarthritis produced by injection of complete Freund's adjuvant in Wistar-Lewis rats. Format: in vivo, rat (Wistar-Lewis). As to conditions: for effect on weight loss induced by adjuvant disease: rat, in vivo; for suppression of primary and secondary responses: reference NSAI drugs, dose not given. An excerpt: This pattern of antiarthritic activity again distinguishes 4-(2-hydroxyethylthiomethyl)pyridine /from the classical NSAI drugs.

Data set [7] has as its system humoral immune response to sheep red blood cells. As to the kind of experiment: humoral immune response of mice to sheep red blood cells. Format: in vivo. The note with it: for effect on humoral immune response to sheep red blood cells (immunosuppressive drugs): same conditions, dose of the drugs not given.
A short description of data set [8]: acute toxicity in the rat. Format: in vivo. The note with it: rat, in vivo, po. The procedure:
(§2) Its oral LD50 in mice is greater than 100 mg./kg. In the rat, it also has an LD50 value greater than 1000 mg./kg. […] No changes in clinical chemistry, hematology or body weight were observed.

The subject of data set [9] is rat. As to the kind of experiment: acute toxicity in the rat. Format: in vivo. The note with it: rats. How it is done: as §2
Data set [10] deals with prostaglandin synthesis in MC5-5 cells. Put plainly: prostaglandin synthesis in MC5-5 cells in vitro. Format: cell-based. The note with it: read-out: IC50, inhibition of prostaglandin synthesis in MC5-5 cells.
The subject of data set [11] is mice. Put plainly: acute oral toxicity in mice. Format: in vivo. How it is done: as §2
Where [12] appears, read: oral dosage of 1 mg./kg., thymectomized mice.
[13] abbreviates: oral dosage of 33 mg./kg., 3 hours after carrageenin.

Where two headings read alike, the source gives them in different places.

Turning to `CC(SCc1ccncc1)C(O)c1ccccc1` (stereo not shown), the “% Rosetting Cells” value in data set [1] (setting [12]) worked out at 33%.
On the same count and under the same terms, under `OCC(O)CSCc1ccncc1` (stereo not shown) [drawing 17] stands 57%.
For the compound `OC(CSCc1ccncc1)c1ccccc1` (stereo not shown), in data set [1] (oral, 10 mg./kg.), the “% Rosetting Cells” value is 50%.
With `COc1ccc2c(c1)c(CC(=O)O)c(C)n2C(=O)c1ccc(Cl)cc1` [indomethacin], the “suppression of erythema (NSAI drugs)” value in data set [2] was “clearcut suppression of erythema”. Besides, the ulcerogenic effects result in data set [3] (10 mg./kg.) is on record as “distinct ulcerogenic effects”.
In the case of `CC(O)CSCc1ccncc1` (stereo not shown) [drawing 31], in [4] (setting [13]), the “% Inhibition of Edema” value amounted to 5%.
Regarding `O=P(O)(O)O.OCCSCc1ccncc1` [4-(2-hydroxyethylthiomethyl)pyridinium dihydrogen phosphate], the water solubility entry in [5] was “excellent water solubility”.
On to `OCCSCCc1ccncc1` [CH2 CH2, H, 2, 4-[2-(2-Hydroxyethylthio)ethyl]pyridine], for which the “% Rosetting Cells” value in data set [1] (setting [12]) was found to be 50%.
With `Oc1ccccc1SCc1ccncc1`, the “% Rosetting Cells” value in [1] (setting [12]) is 59%.
For `CN1C(C(=O)Nc2ccccn2)=C(O)c2ccccc2S1(=O)=O` [Piroxicam, reference compound], in data set [6], the “effect on weight loss induced by adjuvant disease” value (from here on “effect on weight loss induced”) was “partially preventing the weight loss”; the “suppression of primary and secondary responses” value is “effective in suppressing both the primary and secondary responses”.
In the case of `CC(CO)SCc1ccncc1` (stereo not shown) [drawing 30], the “% Inhibition of Edema” value in data set [4] (setting [13]) is given as 20%.
As to `O=P1(N(CCCl)CCCl)NCCCO1` (stereo not shown) [cyclophosphamide], in [7], the “effect on humoral immune response to sheep red blood cells (immunosuppressive drugs)” value (from here on “effect … (immunosuppressive drugs)”) is given as “profoundly inhibitory”.
With `OCCCSCc1ccncc1` [CH2 CH2 CH2, H, 1, 4-(3-Hydroxypropylthiomethyl)pyridine], in [1] (setting [12]), the “% Rosetting Cells” value turned out to be 36%.
Still for that read-out and setting: under `O=[N+]([O-])c1ccc(C(O)CSCc2ccncc2)cc1` (stereo not shown) stands 40%.
For `CCCCC1C(=O)N(c2ccccc2)N(c2ccccc2)C1=O` [phenylbutazone, reference compound], the “suppression of erythema (NSAI drugs)” value in data set [2] is reported as “clearcut suppression of erythema”. Further, in data set [6], the “effect on weight loss induced” value is recorded as “partially preventing the weight loss”; the “suppression of primary and secondary responses” value was “effective in suppressing both the primary and secondary responses”.
Take `OCC(O)CSCc1ccncc1` (stereo not shown) [drawing 29]: the “% Inhibition of Edema” value in [4] (setting [13]) is reported as 17%.
With `CC(C)(O)CSCc1ccncc1`, the “% Rosetting Cells” value in data set [1] (setting [12]) amounted to 39%.
For `Sc1ncnc2nc[nH]c12` [6-mercaptopurine], the “effect … (immunosuppressive drugs)” value in data set [7] was “profoundly inhibitory”.
Turning to `OCCSCc1ccncc1` [4-(2-Hydroxyethylthiomethyl)pyridine], the “% Rosetting Cells” value in data set [1] (oral, 0.01 mg./kg.) amounted to 16%. In addition, the LD50 (commonly the dose expected to kill half of the subjects tested) in [8] is > 1000 mg/kg; in data set [11] (mouse, in vivo, po), “greater than 100 mg./kg”. Further, the “acute toxicity relative to levamisole” value in data set [9] and in data set [11] (mice) was “less acutely toxic than levamisole” each time. The IC50 (as a rule, the concentration at which inhibition is half-maximal) in [10] is > 100 µM. Moreover, the “activity in ultraviolet light induced erythema procedure” value in data set [2] (33 mg./kg. p.o.) was “lack of activity”. Besides, the “effect on humoral immune response to sheep red blood cells” value in [7] (four daily oral doses, 33 mg./kg.) is “did not affect the humoral immune response”. Also, the “% Inhibition of Edema” value in [4] (setting [13]) came out at 52%; in data set [4] (oral, 3.3 mg./kg.) it was 16%; in [4] (oral, 10 mg./kg.) it was 29%. Further, in data set [6] (Rattus norvegicus, po), the ED50 (as a rule, the dose at which the effect has come halfway, by size or by number of responders) is ~33 mg/kg. In addition, the “effect on the rapid onset, acute inflammation of the adjuvant-injected foot” value in [6] (day 4 or day 16) is recorded as “no effects”. In addition, in data set [6] (p.o.), the “antiarthritic effect on the secondary response (spread of disease to the uninjected foot)” value is recorded as “selective for the slow onset, lymphoid cell mediated, secondary response”. Further, in [6] (p.o.), the “protection from adjuvant polyarthritis” value was “dose-related protection”. Also, the “effect on weight loss induced” value in data set [6] is “does not affect the weight loss”.
Consider `OCCSCc1ccncn1` [4-(2-hydroxyethylthiomethyl)pyrimidine, 4-(2-Hydroxyethylthiomethyl)pyrimidine], for which the “restoration of rosette formation” value in [1] (oral dosage of 1 mg./kg., pyrimidine) is 38%. The “% Inhibition of Edema” value in data set [4] (setting [13]) is on record as 11%.
For the compound `CC(=O)Oc1ccccc1C(=O)O` [aspirin, acetylsalicylic acid], the ulcerogenic effects result in data set [3] (50 mg./kg.) is recorded as “distinct ulcerogenic effects”.
Consider `COc1ccc(C(O)CSCc2ccncc2)cc1` (stereo not shown), for which the “% Rosetting Cells” value in data set [1] (setting [12]) is reported as 43%.
Same read-out and setting: under `CC(O)C(C)SCc1ccncc1` (stereo not shown) stands 63%; under `CC(=O)OCCSCc1ccncc1` [CH2 CH2, drawing 27, 1, 4-(2-Acetoxyethylthiomethyl)pyridine], 40%.
As to `Cn1cnc([N+](=O)[O-])c1Sc1ncnc2nc[nH]c12` [azathioprine], the “effect … (immunosuppressive drugs)” value in [7] is “profoundly inhibitory”.
As to `COCCSCc1ccncc1` [CH2 CH2, CH3, 1, 4-(2-Methoxyethylthiomethyl)pyridine], in [1] (setting [12]), the “% Rosetting Cells” value turned out to be 33%.
For `CN(Cc1cnc2nc(N)nc(N)c2n1)c1ccc(C(=O)N[C@@H](CCC(=O)O)C(=O)O)cc1` [methotrexate], the “effect … (immunosuppressive drugs)” value in data set [7] was “profoundly inhibitory”.
For `CC(O)CSCc1ccncc1` (stereo not shown) [drawing 21], the “% Rosetting Cells” value in [1] (setting [12]) is reported as 56%.
With `CC(CO)SCc1ccncc1` (stereo not shown) [drawing 19], in data set [1] (setting [12]), the “% Rosetting Cells” value is listed as 40%.
Regarding `OCC(SCc1ccncc1)c1ccccc1` (stereo not shown), the “% Rosetting Cells” value in data set [1] (setting [12]) is 33%.
